From patent publication US20250025438A1, “Derivative of aspartic acid and use thereof in treatment of metabolic diseases such as hepatic fibrosis and non-alcoholic hepatitis” (SHENZHEN JINGTAI TECHNOLOGY CO., LTD., priority 2021, published 2025)
Where a name gives a salt, the structure may show the parent alone. Where a SMILES comes first, the peptide text is derived from it.

What was measured:
Type in all cases: cell-based
COL1A1 = assay: In vitro efficacy in semi-activated LX2 cells, qPCR: COL1A1; details: 48 hours, Q-PCR; for inhibition at 50 µM: Homo sapiens, LX-2, 50 µM, read-out: COL1A1 mRNA inhibition rate; for COL1A1 mRNA inhibition rate: 50 µM
Method: (§1) Test compounds were added to the LX-2 cells respectively, and total RNA in the cells was extracted 48 hours later. This experiment was performed strictly in accordance with the instructions of the Total RNA Kit. The steps were as follows (note: this experiment was performed on ice throughout the entire process, and special RNase-free tips were used throughout the entire process): • 1) The 12-well cell culture plate was taken out from the incubator, the cell culture medium was discarded, the cells were washed twice with 1 mL of 1×PBS, and a negative pressure suction device was used to fully remove PBS; • 2) 350 μL of TRK Lysis Buffer mixture/well was prepared as needed (mixture preparation method: 1 mL of TRKLysis Buffer+20 μL of β-mercaptoethanol), vortexed and mixed well. 350 μL was added to each well of the 12-well cell culture plate, and allowed to stand at room temperature for 5 minutes to fully lyse the cells; • 3) 70% ethanol/well was prepared as needed, vortexed and mixed well. 350 μL was added to each well of the 12-well cell culture plate, mixed well by shaking, and transferred to the spin column (spin column+collection tube were assembled); • 4) Centrifugation was performed at 4° C., 12000 g for 60 sec. The waste liquid was discarded after centrifugation, while the spin column was kept; • 5) 500 μL of RNA Wash Buffer I was added, centrifuged at 4° C., 12000 g for 60 sec, the waste liquid was discarded after centrifugation, and the collection column was kept; • 6) 500 μL of RNA Wash Buffer II (confirmed that ethanol had been added) was added, centrifuged at 4° C., 12000 g for 60 sec, the waste liquid was discarded after centrifugation, and the collection column was kept; • 7) step 6) was repeated once again, centrifugation was performed at 4° C., 12000 g for 90 sec, the waste liquid was discarded after centrifugation, and the collection column was kept; • 8) Centrifugation was performed at 4° C., 12000 g for 120 sec to ensure that the spin column was fully dried; • 9) The dried spin column was inserted into a new 1.5 mL EP tube, and 30 μL of DEPC water was added to the membrane in the center of the spin column. It should be careful not to touch the EP tube cover in this step. It was allowed to stand at room temperature for 5 minutes to ensure that the RNA was fully dissolved in DEPC water. Centrifugation was performed at 4° C., 12000 g for 60 sec, and the EP tube was kept; • 10) NanoDrop ultra-micro-volume spectrophotometer was used to detect RNA concentration;
(§2) 5.2 Reverse transcription of RNA into cDNA: According to the instructions of PrimeScript™ RT reagent Kit (Perfect Real Time), the specific experimental steps were as follows:
(§3) 5.3 Q-PCR detection of target gene expression: According to the instructions of Power SYBR® Green PCR Master Mix, the specific operations were as follows:
(§4) After the reaction was completed, the amplification curve and dissolution curve of Q-PCR were confirmed, and the relative quantification method ([…]) was used to perform data analysis on the experimental results.
(§5) LX2 cells were passaged and plated normally. […] After 48 hours, the cells were collected, total RNA was extracted, and Q-PCR was used to detect the changes in the mRNA expression levels of liver fibrosis-related genes (ACTA2 encoding α-SMA, COL1A1 and COLIA2 encoding collagen I, COL3A1 encoding collagen III, SMAD3 encoding Smad3) and inflammation-related genes (IL1β encoding IL-1β, TNFα encoding TNFα) (for specific methods, see 5. Q-PCR detection of target gene expression as described above). α-SMA was a marker of hepatic stellate cell activation, and collagen I and collagen III were the main components of extracellular matrix deposition.

α-SMA = assay: In vitro efficacy in semi-activated LX2 cells, qPCR: α-SMA; details: 48 hours, Q-PCR; for inhibition at 50 µM: read-out: α-SMA mRNA inhibition rate
Method: as §1, §2, §3, §4, §5

Smad3 = assay: In vitro efficacy in semi-activated LX2 cells, qPCR: Smad3; details: 48 hours, Q-PCR; for inhibition at 50 µM: Homo sapiens, LX-2, 50 µM, read-out: Smad3 mRNA inhibition rate; for inhibition of the expression of Smad3 at the mRNA level: Table 2
Method: as §1, §2, §3, §4, §5

TNF-α = assay: In vitro efficacy in semi-activated LX2 cells, qPCR: TNF-α; details: Q-PCR; for inhibition at 50 µM: Homo sapiens, LX-2, 48 hours, read-out: TNF-α mRNA inhibition rate
Method: as §1, §2, §3, §4
(§6) LX2 cells were passaged and plated normally. After adherent growth for 12 hours, 50 µM of the test compound was added. After 48 hours, the cells were collected, total RNA was extracted, and Q-PCR was used to detect the changes in the mRNA expression levels of liver fibrosis-related genes (ACTA2 encoding α-SMA, COL1A1 and COLIA2 encoding collagen I, COL3A1 encoding collagen III, SMAD3 encoding Smad3) and inflammation-related genes (IL1β encoding IL-1β, TNFα encoding TNFα) (for specific methods, see 5. Q-PCR detection of target gene expression as described above). α-SMA was a marker of hepatic stellate cell activation, and collagen I and collagen III were the main components of extracellular matrix deposition.

COL3A1 = assay: In vitro efficacy in semi-activated LX2 cells, qPCR: COL3A1; details: 48 hours, Q-PCR; for COL3A1 mRNA inhibition rate: 50 µM; for inhibition at 50 µM: Homo sapiens, LX-2, 50 µM, read-out: COL3A1 mRNA inhibition rate
Method: as §1, §2, §3, §4, §5

IL-1β = assay: In vitro efficacy in semi-activated LX2 cells, qPCR: IL-1β; details: 48 hours, Q-PCR; for IL-1β mRNA inhibition rate: 50 µM; for inhibition at 50 µM: Homo sapiens, LX-2, 50 µM, read-out: IL-1β mRNA inhibition rate
Method: as §1, §2, §3, §4, §5

[1] = test system: collagen I and collagen III; assay: Semi-activated LX2 cells, qPCR: collagen I and collagen III at the mRNA level; details: 48 hours, Q-PCR, Table 2
Method: as §1, §3
as §6, with “deposition. […]” for “deposition.”

COL1A2 = assay: In vitro efficacy in semi-activated LX2 cells, qPCR: COL1A2; details: Homo sapiens, LX-2, 48 hours, Q-PCR, read-out: COL1A2 mRNA inhibition rate
Method: as §1, §2, §3, §4, §6

| SMILES | inhibition at 50 µM (COL1A1) [%] | inhibition at 50 µM (α-SMA) [%] | inhibition at 50 µM (Smad3) [%] | inhibition at 50 µM (TNF-α) [%] | inhibition of the expression of collagen I and collagen III at the mRNA level [1] | inhibition at 50 µM (COL3A1) [%] | inhibition at 50 µM (IL-1β) [%] | also measured |
| --- | --- | --- | --- | --- | --- | --- | --- | --- |
| CC(C)(C)OC(=O)C[C@H](NC(=O)OC(C)(C)C)C(=O)O [Compound 17] | 1 to 10 | 1 to 10 | 1 to 10 | 10 to 25 | – | – | – | – |
| COC(=O)C[C@H](N)C(=O)OC(C)(C)C.Cl [Compound 44] | – | – | – | – | could inhibit | – | – | COL1A1 mRNA inhibition rate (COL1A1): D (D represented that the inhibition rate was 10% to 25%); COL3A1 mRNA inhibition rate (COL3A1): E (E represented that the inhibition rate was 1% to 10%); IL-1β mRNA inhibition rate (IL-1β): E (E represented that the inhibition rate was 1% to 10%) |
| CC(C)OC(=O)OCOC(=O)[C@H](Cc1ccccc1)NC(=O)[C@@H](N)CC(=O)O [Compound 53, (S)-3-amino-4-(((S)-1-(((isopropoxycarbonyl)oxy)methoxy)-1-oxo-3-phenylpropan-2-yl)amino)-4-oxobutyric acid hydrochloride] | 10 to 25 | 10 to 25 | – | – | could inhibit | 10 to 25 | – | inhibition at 50 µM (COL1A2): 1 to 10%; inhibition of the expression of α-SMA at the mRNA level (α-SMA; Table 2): could inhibit |
| CC(=O)N[C@@H](CC(=O)OC(C)(C)C)C(=O)O [Compound 31] | 1 to 10 | 1 to 10 | – | – | – | – | 1 to 10 | – |
| O=C(O)C[C@H](NC(=O)[C@@H]1CCCN1)C(=O)O [Compound 40] (H-Pro-Asp-OH) | 25 to 50 | – | 1 to 10 | 1 to 10 | could inhibit | 25 to 50 | 1 to 10 | – |
| CC(C)(C)OC(=O)C[C@H](NC(=O)OCC1c2ccccc2-c2ccccc21)C(=O)O [Compound 18] | 10 to 25 | – | – | – | could inhibit | 1 to 10 | – | inhibition at 50 µM (COL1A2): 1 to 10% |
| COC(=O)C[C@H](NC(=O)OCC1c2ccccc2-c2ccccc21)C(=O)O [Compound 9] | – | 1 to 10 | 10 to 25 | – | – | – | 25 to 50 | inhibition of the expression of Smad3 at the mRNA level (Smad3): could inhibit |
| COC(=O)[C@@H](N)CC(=O)OC(C)(C)C [Compound 15] | 10 to 25 | 1 to 10 | 10 to 25 | 1 to 10 | could inhibit | 10 to 25 | – | inhibition of the expression of Smad3 at the mRNA level (Smad3): could inhibit |
| CC(C)OC(=O)C[C@H](N)C(=O)O [Compound 36, 4-isopropyl L-aspartic acid ester] | – | 1 to 10 | 1 to 10 | 1 to 10 | – | 1 to 10 | – | – |
| CN(C)C(=O)N[C@@H](CC(=O)O)C(=O)O [Compound 62, (dimethylcarbamoyl)-L-aspartic acid] | 1 to 10 | 1 to 10 | 1 to 10 | 1 to 10 | – | – | 1 to 10 | – |
| C=CCOC(=O)C[C@H](NC(=O)OCC1c2ccccc2-c2ccccc21)C(=O)O [Compound 11] | – | – | 1 to 10 | 1 to 10 | – | – | 25 to 50 | – |
| CC(C)(C)OC(=O)[C@@H](N)CC(=O)O [Compound 14] | 10 to 25 | – | – | 1 to 10 | could inhibit | 1 to 10 | – | – |
| N[C@@H](CC(=O)OCc1ccccc1)C(=O)O [Compound 22] | 10 to 25 | – | 10 to 25 | 1 to 10 | could inhibit | 1 to 10 | 1 to 10 | inhibition of the expression of Smad3 at the mRNA level (Smad3): could inhibit |
| O=CN[C@@H](CC(=O)O)C(=O)O [Compound 29] | 1 to 10 | 1 to 10 | – | – | – | – | – | inhibition at 50 µM (COL1A2): 1 to 10% |
| COC(=O)C[C@H](NC(=O)OC(C)(C)C)C(=O)O [Compound 8] | 10 to 25 | – | 1 to 10 | – | could inhibit | 10 to 25 | 1 to 10 | – |
| CC(C)(C)OC(=O)[C@@H](N)CC(=O)OCc1ccccc1.Cl [Compound 42] | – | – | – | – | could inhibit | – | – | COL1A1 mRNA inhibition rate (COL1A1): C (C represented that the inhibition rate was 25% to 50%); COL3A1 mRNA inhibition rate (COL3A1): E (E represented that the inhibition rate was 1% to 10%); Smad3 mRNA inhibition rate (Smad3; 50 µM): E (E represented that the inhibition rate was 1% to 10%); IL-1β mRNA inhibition rate (IL-1β): E (E represented that the inhibition rate was 1% to 10%); TNF-α mRNA inhibition rate (TNF-α; 50 µM, 48 hours): D (D represented that the inhibition rate was 10% to 25%) |
| CN(C(=O)OCC1c2ccccc2-c2ccccc21)[C@@H](CC(=O)OC(C)(C)C)C(=O)O [Compound 19] | 10 to 25 | – | – | – | could inhibit | 10 to 25 | – | inhibition at 50 µM (COL1A2): 10 to 25% |
| CC(C)C(=O)N[C@@H](CC(=O)O)C(=O)O [Compound 59, isobutyryl-L-aspartic acid] | 10 to 25 | 1 to 10 | – | 1 to 10 | could inhibit | – | – | – |
| N[C@@H](CC(=O)NCC(=O)O)C(=O)O [Compound 34] | – | 1 to 10 | 1 to 10 | 1 to 10 | – | 1 to 10 | 1 to 10 | – |
| CC(C)(C)OC(=O)N[C@@H](CC(=O)O)C(=O)O [Compound 1] | 1 to 10 | 1 to 10 | 10 to 25 | 1 to 10 | – | – | – | inhibition of the expression of Smad3 at the mRNA level (Smad3): could inhibit |
| CC(C)(C)OC(=O)C[C@H](NC(=O)OCc1ccccc1)C(=O)O [Compound 16] | 1 to 10 | – | – | 1 to 10 | – | – | – | – |
